In brackets after ≈: the same amount, converted by molar mass. Entries after “also recorded” stand apart in the source; their conditions may differ. Read-outs that look alike come from different tables or passages of the source.
What was measured:
[1] = system: Staphylococcus epidermidis; assay: Susceptibility (MIC) of S. epidermidis isolates used in CVC studies
[2] = system: Staphylococcus aureus; assay: Susceptibility (MIC) of S. aureus #42 control strain; format: cell-based; conditions: strain 42 Staphylococcus aureus; read-out: MIC
[3] = system: S. epidermidis biofilm in catheter; assay: Histopathology of CVC biofilms in the rat model; format: in vivo, Sprague Dawley rats
Method: The nature of the CVC infection and resulting biofilms in the catheter was determined through histopathology. The data on histopathology can be summarized as follows: • 1. Eight days after implantation, the rat central venous catheter model develops focal biofilms with or without bacterial colonies in the catheter's inner luminal surfaces. At this time point, the thickness of the biofilm varies between 7 to 15 microns. • 2. After 12 days of implantation, the fibrils making up the inner luminal surface biofilm appear to be denser and more organized, and the biofilm layer is slightly thicker (up to 25 microns). • 3. In the saline negative controls, bacterial colonies were present in the biofilm, and identified as Gram positive cocci. • 4. […] However, cocci-like, Gram positive individual round structures were noted. • 5.
At day 12 post infection in untreated rats, as in the previous time point, biofilms tended to be present in the inner luminal surfaces of the indwelling catheter, 5-25 microns thick, and contained variable numbers of basophilic granular bacterial colonies (confirmed by Gram stain). However, in contrast to the previous time point, focal portions of the luminal protein cast appeared to be more organized and contained numerous bluish bacterial colonies. See FIG. 10 showing the biofilm appearance at day 12 post infection. […] Rat A1 served as negative control and received saline (2 mL/kg SC+saline via catheter); Rat A6 received low-dose daptomycin (10 mg/kg SC+5 mg/mL via catheter); Rat A12 received high-dose daptomycin (33 mg/kg SC+5 mg/mL via catheter); and Rat A17 received vancomycin (50 mg/kg SC+5 mg/mL via catheter). Tissues from the four rats were evaluated. FIG. 11, below, is a composite of the findings for all four rats.
FIG. 11 provides histopathological evidence of daptomycin and vancomycin efficacy after 4 days of infusion therapy. In FIG. 11, from left to right, the images illustrate the CVC tissues from rats A1, A6, A12, and A17, respectively. The upper images are all H&E-stained and the bottom images are all Gram-stained. […] These round structures surrounded or encircled cell membranes.

[4] = system: S. epidermidis CVC infection; assay: Rat model of CVC infection, antibiotic lock therapy; format: in vivo, Sprague Dawley rats
Method: (§1) Male Sprague Dawley rats (˜250 g) with catheterized jugular veins were used in these studies. Rat catheters (polyurethane tubing, 0.025 inch internal diameter) were inoculated with a culture of S. epidermidis at 5×10^8 CFU/ml. The total volume of the catheters is approximately 40 μl. The catheters were flushed with heparinized saline 1 hour after inoculation, and were maintained by daily flushes. The catheter infection was monitored by daily blood draws that were plated and quantified.
(§2) Daptomycin, vancomycin and nafcillin were used as therapy. Two different dosing regimes were used. The first mimicked clinical infusion with daptomycin administered at 5 mg/ml in the line for 30 minutes once daily compared to vancomycin at 5 mg/ml for 60 minutes twice daily, for a total of 4 days. The second regime simulated antibiotic lock therapy with an 18 hour exposure of daptomycin or vancomycin at 5 mg/ml, followed by a heparinized saline flush, daily for 3 days. In both regimes, the animals received parenteral doses of the appropriate antibiotic by subcutaneous route to simulate total body exposure (as it was not possible to administer the correct dosages through the line at 5 mg/ml). Most trials involved a therapy period, followed by a period of no antibiotic therapy to monitor for resurgence of infection due to surviving bacterial colonies.
(§3) Infection levels were monitored by daily blood draws through the infected catheter. For the terminal harvest, a final blood draw was taken and then the flushed catheter was harvested, and analyzed for surviving bacteria by sonication, vortexing, and plating. The vena cava, heart, lung, kidney, and spleen were assayed as potential metastatic infection sites by aseptic harvest, homogenization, and plating.

[5] = system: Methicillin-resistant coagulate negative staphylococci biofilms; format: cell-based, coagulase negative staphylococci (S. epidermidis isolates)
Method: Methicillin-resistant coagulate negative staphylococci biofilms were grown to approximately 10^5 cells per cm^2 for 24 h in glass test tubes, planktonic bacteria rinsed away and Mueller Hinton broth (calcium supplemented to […] in daptomycin tests) containing antimicrobials added to the tubes. The concentrations of antimicrobials studied were two-fold dilutions from 64 to 1 μg/mL of daptomycin, rifampin, or daptomycin plus 0.5 μg/mL rifampin. The tests were incubated overnight in room air at 37° C. The cell density in rinsed biofilms was determined prior to addition of antimicrobials and after incubation. The change in bacterial density after incubation with antimicrobials was determined, and the results were expressed as the lowest antimicrobial concentration that killed 99.90% of biofilm bacteria. Bacteria recovered from tests containing rifampin were tested for rifampin susceptibility.

[6] = system: S. epidermidis CVC infection; assay: Rat model of CVC infection, infusion therapy; format: in vivo, Sprague Dawley rats
Method: as §1, §2, §3

[7] = system: stationary phase S. epidermidis; assay: In vitro model of stationary phase bacteria (kill kinetics); format: cell-based; conditions: for Cidal activity against stationary phase culture: through 24 hours
Method: The impact of cidal activity of antibacterial compounds on stationary phase bacteria was assayed. Cultures of S. epidermidis and S. aureus were grown to stationary phase (>1×10^9 and centrifuged, washed 2×, and then resuspended into saline or lactated Ringer's solution. The cultures were treated with either daptomycin or vancomycin at 5 mg/ml and the decrease in viable bacteria were measured through 24 hours to determine the kill kinetics.

[8] = following 7 days of antibiotic-free heparin flushes
[9] = Antimicrobial Concentration ≧64

CCCCCCCCCC(=O)N[C@@H](Cc1c[nH]c2ccccc12)C(=O)N[C@H](CC(N)=O)C(=O)N[C@@H](CC(=O)O)C(=O)N[C@@H]1C(=O)NCC(=O)N[C@@H](CCCN)C(=O)N[C@@H](CC(=O)O)C(=O)N[C@H](C)C(=O)N[C@@H](CC(=O)O)C(=O)NCC(=O)N[C@H](CO)C(=O)N[C@@H]([C@H](C)CC(=O)O)C(=O)N[C@@H](CC(=O)c2ccccc2N)C(=O)O[C@@H]1C [Daptomycin]
MIC ([1]; strain 119 Staphylococcus epidermidis): 0.25 µg/mL (≈ 0.154 µM) | MIC ([1]; strain 1315 Staphylococcus epidermidis): 0.5 µg/mL (≈ 0.309 µM) | MIC ([1]; strain 1316 Staphylococcus epidermidis): 0.5 µg/mL (≈ 0.309 µM) | MIC ([1]; strain 1317 Staphylococcus epidermidis): 1 µg/mL (≈ 0.617 µM) | MIC ([1]; strain 1318 Staphylococcus epidermidis): 1 µg/mL (≈ 0.617 µM) | MIC ([1]; strain 1319 Staphylococcus epidermidis): 1 µg/mL (≈ 0.617 µM) | MIC ([1]; strain 1320 Staphylococcus epidermidis): 0.5 µg/mL (≈ 0.309 µM) | MIC [2]: 0.5 µg/mL (≈ 0.309 µM) | Biofilm formation and Gram positive bacterial colonies in the biofilm (histopathology summary) ([3]; 5 mg/mL via the catheter): did not prevent biofilm formation, but prevented the growth and presence of Gram positive bacterial colonies in the biofilm | Bacterial colonies in biofilm, histopathology of single rats ([3]; after 4 days of infusion therapy, rat A12 daptomycin 33 mg/kg SC + 5 mg/mL via catheter, rat A17 vancomycin 50 mg/kg SC + 5 mg/mL via catheter): not interpreted to be bacterial colonies | Overall outcome of lock therapy ([4]; 18 hour lock at 5 mg/ml): curative and prevented resurgence; also recorded: reduced biofilm to a non-detectable level and largely prevented resurgence of infection | Animals with positive blood draws after lock therapy [4, 8]: 0/6 | Animals with positive catheter at harvest after lock therapy [4, 8]: 1/6 | Metastatic infection after lock therapy ([4]; lock therapy combined with SC dosing): cleared and prevented reemergence of metastatic infection | # of isolates (lowest concentration that killed 99.90% of biofilm bacteria) ([5]; Antimicrobial Concentration 1): 0 | # of isolates (lowest concentration that killed 99.90% of biofilm bacteria) ([5]; Antimicrobial Concentration 2): 5 | Mean log10 reduction ([5]; Antimicrobial Concentration 2): 3.3 log10 | # of isolates (lowest concentration that killed 99.90% of biofilm bacteria) ([5]; Antimicrobial Concentration 4): 4 | Mean log10 reduction ([5]; Antimicrobial Concentration 4): 3.2 log10 | # of isolates (lowest concentration that killed 99.90% of biofilm bacteria) ([5]; Antimicrobial Concentration 8): 5 | Mean log10 reduction ([5]; Antimicrobial Concentration 8): 3.8 log10 | # of isolates (lowest concentration that killed 99.90% of biofilm bacteria) ([5]; Antimicrobial Concentration 16): 1 | Mean log10 reduction ([5]; Antimicrobial Concentration 16): 3.5 log10 | # of isolates (lowest concentration that killed 99.90% of biofilm bacteria) ([5]; Antimicrobial Concentration 32): 2 | Mean log10 reduction ([5]; Antimicrobial Concentration 32): 3.6 log10 | # of isolates (lowest concentration that killed 99.90% of biofilm bacteria) [5, 9]: 10 | Mean log10 reduction [5, 9]: 2.0 log10 | Emergence of rifampin resistance in biofilm isolates ([5]; after exposure overnight): did not prevent emergence of rifampin resistance | Cidal concentration in biofilm relative to comparator ([5]; comparison with rifampin): cidal at lower concentrations than was rifampin | Isolates with bactericidal activity in biofilm ([5]; with ≦32 μg/mL daptomycin): 27 of 30 | Catheter infection by CVC blood draw after infusion therapy ([6]; 5 mg/ml in line, daptomycin once a day, vancomycin twice a day, after three days of therapy (day 8)): reduced most catheter infections to a non-detectable level | Overall outcome of infusion therapy ([6]; 30 minute infusion at 5 mg/ml): temporarily reduced catheter infections to a non-detectable level, but infection resurgence was common; also recorded: reduced biofilm to non-detectable level, but a resurgence of infection was common | Metastatic infection after infusion therapy (vena cava, heart, lung, kidney, spleen) ([6]; infusion therapy, same groups as FIG. 3): very little metastatic infection at any site | Cidal activity against stationary phase culture ([7]; 5 mg/ml in lactated Ringer's): rapidly cidal; also recorded: cidal in lactated Ringer's | Cidal activity against stationary phase culture ([7]; 5 mg/ml in saline): neither daptomycin nor vancomycin had cidal activity | Cidal activity against stationary phase S. epidermidis (conclusion) ([7]; in vitro, medium not stated): cidal

Reference: patent publication US8003673B2, “Daptomycin for the treatment of biofilm and catheter salvage” (Cubist Pharmaceuticals, Inc., priority 2006, dated 2011)
